Details of series [1]: key to Body weight / Insulin resistance / Hyperglycemia / Hypertension / Blood LDLc / Blood HDLc / Fatty liver: ↓: lowering or mitigating action; ↑: increasing action; →: no change. As to conditions: cited from earlier work.
The next series has as its target T1, Helz2 (Homo sapiens, UniProt Q9BYK8).
T1 construct: 3xFLAG (N); made in house; host or cells: HEK293 cells
In words: High-throughput screening through surface plasmon resonance for low-molecular-weight compounds that bind to Helz2. As to conditions: purified Helz2 protein. Type of series: binding. An excerpt: 1. High-Throughput Screening for Low-Molecular-Weight Compounds that Bind to Helz2
HEK293 cells were allowed to express Helz2 by using a Helz2 expression vector (p3×FLAG-CMV10-pDIP2), and Helz2 protein was purified.
For orientation: Surface plasmon resonance follows binding to a sensor surface in real time, without labels.

In series [2] the test system is obese mice fed high-fat diet. Nature of the series: Hepatic lipid content after oral administration to obese mice (LipoSEARCH, BODIPY staining). Type of series: in vivo, mice (C57BL6J). The following applies: obese mice. The method, then:
(§1) Six-week-old male mice (C57BL6J) were grown with high-fat diet (fat content: 60 kcal %, Research diets, Inc.) or low-fat diet (fat content: 10.5 kcal %, CLEA Japan, Inc.) for 18 weeks. Thereafter, obese mice fed high-fat diet were separated into two groups, and 0.3 mL of physiological saline was orally administered to one group through a gastric tube for mouse, and 0.3 mL of a solution of a low-molecular-weight compound dissolved in physiological saline was orally administered to the other group through the gastric tube for mouse. Oral administration was performed every day over 14 days during 30 minutes before turning lights off at 18:00 (turning lights on at 6:00, 12-hour light-dark cycle, room temperature: 22° C.). […] Thereafter, the organs were stored at −80° C. Hepatic Leprb expression was measured by means of the qRT-PCR.
8. Change in Hepatic Lipid Content after Oral Administration of Low-Molecular-Weight Compound
Hepatic Tg and Chol contents after administration of physiological saline or administration of a low-molecular-weight compound were measured by using a LipoSEARCH method (Skylight Biotech, Inc.).
To visualize and quantify the amount of fat accumulated in hepatocyte per cell and change in shape of fat, fat globule fluorescent staining with BODIPY (excitation light: 493 nm; fluorescence: 503 nm) was performed. Staining-positive area and size of staining-positive cell were measured in 10 views per mouse hepatocyte in each group. ANOVA was used for intergroup significance test in FIGS. 8-D and 8-E (****. P<0.001).

Series [3] has as its system obese mice fed high-fat diet. In words: Blood lipid concentration after oral administration to obese mice. Type of series: in vivo, mice (C57BL6J). As to conditions: obese mice, 14-day oral administration, fasting, vs physiological saline. The method, then:
as §1
10. Change in Blood Lipid Concentration after Oral Administration of Low-Molecular-Weight Compound
Fasting blood CM-Tg, VLDL-Tg, LDLc, and HDLc concentrations after administration of physiological saline or administration of a low-molecular-weight compound were measured by using the LipoSEARCH method.

The test system of a further series is Hepatic Leprb expression. In words: Hepatic Leprb expression with oral administration to obese mice. Type of series: in vivo, mice (C57BL6J). The following applies: 0.32 mg/kg/day oral, 14 days, vs physiological saline. As to the method:
3. Hepatic Leprb Expression with Oral Administration of Low-Molecular-Weight Compound
as §1

Series [4] concerns obese mice fed high-fat diet. Nature of the series: Weights of spleen and kidney after oral administration to obese mice. Format: in vivo, mice (C57BL6J). As to conditions: 14-day oral administration, vs physiological saline. The method, then:
as §1
11. Change in Weights of Spleen and Kidney after Oral Administration of Low-Molecular-Weight Compound
The weights of the spleen and kidney after administration of physiological saline or administration of a low-molecular-weight compound were measured.

The subject of series [5] is obese mice fed high-fat diet. Nature of the series: Insulin resistance and blood glucose level after oral administration to obese mice. Type of series: in vivo, mice (C57BL6J). The following applies: obese mice, 14-day oral administration, vs physiological saline. The method, then:
as §1
6. Change in Insulin Resistance and Blood Glucose Level after Oral Administration of Low-Molecular-Weight Compound
Fasting blood glucose and blood insulin concentration after administration of physiological saline or administration of a low-molecular-weight compound were measured respectively by using an enzyme-electrode method with glucose oxidase and a mouse insulin ELISA kit (Morinaga Institute of Biological Science, Inc.). The insulin resistance of each mouse was represented as Homeostatic model assessment of insulin resistance (HOMA-IR) [insulin (mU/L)×blood glucose (mM)÷22.5] index (×100) (Brit J Nutr 101: 701-708, 2009).

The test system of series [6] is obese mice fed high-fat diet. In words: Weights of fat and muscle after oral administration to obese mice. Format: in vivo, mice (C57BL6J). The following applies: 14-day oral administration. As to the method: as §1
12. Change in Weights of Fat and Muscle after Oral Administration of Low-Molecular-Weight Compound
The amounts of visceral fat, which evokes metabolic disorder, and muscle (right side) after administration of physiological saline or administration of a low-molecular-weight compound were measured.

In series [7] the test system is Leprb gene expression in HepG2 cells. Nature of the series: Leprb gene expression in cultured hepatocyte HepG2 (qRT-PCR). Type of series: cell-based. As to conditions: HepG2, 10^−9 to 10^−7M, 24 to 48 hours. (In qPCR the cycle at which signal appears reflects the starting amount.)
Procedure: Identification of Low-Molecular-Weight Compound that Promotes Leprb Expression in Cultured Hepatocytes
Because Leprb gene expression is promoted on lowering of the action of Helz2 through binding of a low-molecular-weight compound, the low-molecular-weight compounds that bound to Helz2 were screened with use of increase of Leprb gene expression in cultured hepatocyte as an index. […] The hepatocytes were cultured at 37° C. for 24 to 48 hours, and Leprb gene expression therein was measured through a quantitative real time polymerase chain reaction (qRT-PCR, TaqMan Gene expression assays using LEPRB probes) method.
The subject of series [8] is obese mice fed high-fat diet. In words: Blood leptin concentration and food intake after oral administration to obese mice. Type of series: in vivo, mice (C57BL6J). As to the method: as §1
5. Change in Blood Leptin Concentration and Food Intake after Oral Administration of Low-Molecular-Weight Compound
Blood leptin concentration after administration of physiological saline or administration of a low-molecular-weight compound were measured by using a mouse leptin ELISA kit (Morinaga Institute of Biological Science, Inc.). The daily food intake of each mouse was measured every day before each administration at 18:00.

The subject of series [9] is obese mice fed high-fat diet. Nature of the series: Pancreatic weight and pancreatic β-cell function after oral administration to obese mice. Type of series: in vivo, mice (C57BL6J). As to conditions: 14-day oral administration, vs physiological saline. The method, then: as §1
7. Change in Pancreatic Weight and Pancreatic β-Cell Function after Oral Administration of Low-Molecular-Weight Compound
Pancreatic weight after administration of physiological saline or administration of a low-molecular-weight compound was measured. The pancreatic β-cell function of each mouse was represented by Homeostatic model assessment-β cell function (HOMA-β) {[insulin (mU/L)×20]÷[blood glucose (mM)−3.5]} index (×100) (Brit J Nutr 101:701-708, 2009).

Series [10] concerns obese mice fed high-fat diet. In words: Weights of liver and heart after oral administration to obese mice. Format: in vivo, mice (C57BL6J). As to conditions: 14-day oral administration, vs physiological saline. The method, then:
as §1
9. Change in Weights of Liver and Heart after Oral Administration of Low-Molecular-Weight Compound
The weights of the liver and heart after administration of physiological saline or administration of a low-molecular-weight compound were measured.

Series [11] relates to obese mice fed high-fat diet. Nature of the series: Daily variation of body weight with oral administration to obese mice. Type of series: in vivo, mice (C57BL6J). As to conditions: obese mice, 0.32 mg/kg/day oral. The method, then:
as §1
4. Daily Variation of Body Weight with Oral Administration of Low-Molecular-Weight Compound
The body weight of each mouse with administration of physiological saline or administration of a low-molecular-weight compound was measured every day before each administration at 18:00.

Setting [12] is: surface plasmon resonance, read-out: KD value for binding to and dissociating from Helz2.
Setting [13] is: 14-day oral administration, vs physiological saline.
The mark [14] stands for this setting: fatty liver caused by high-fat diet.
[15] abbreviates: obese mice, 14-day oral administration, vs physiological saline.
The mark [16] stands for this setting: KD value for binding to and dissociating from Helz2, surface plasmon resonance.

Where “and” joins values, the source holds several entries; their conditions need not be identical. Equal values may be shown once. Where a name gives a salt, the structure may show the parent alone. Read-outs that look alike come from different tables or passages of the source.

The values that follow come from patent publication US20210330616A1, “AMELIORATING AGENT FOR OBESITY-RELATED METABOLIC DISEASE” (METABOLIC AND OBESE RESEARCH SCIENCE CORPORATION, priority 2018, published 2021).

T1 sequence (Q9BYK8 whole entry): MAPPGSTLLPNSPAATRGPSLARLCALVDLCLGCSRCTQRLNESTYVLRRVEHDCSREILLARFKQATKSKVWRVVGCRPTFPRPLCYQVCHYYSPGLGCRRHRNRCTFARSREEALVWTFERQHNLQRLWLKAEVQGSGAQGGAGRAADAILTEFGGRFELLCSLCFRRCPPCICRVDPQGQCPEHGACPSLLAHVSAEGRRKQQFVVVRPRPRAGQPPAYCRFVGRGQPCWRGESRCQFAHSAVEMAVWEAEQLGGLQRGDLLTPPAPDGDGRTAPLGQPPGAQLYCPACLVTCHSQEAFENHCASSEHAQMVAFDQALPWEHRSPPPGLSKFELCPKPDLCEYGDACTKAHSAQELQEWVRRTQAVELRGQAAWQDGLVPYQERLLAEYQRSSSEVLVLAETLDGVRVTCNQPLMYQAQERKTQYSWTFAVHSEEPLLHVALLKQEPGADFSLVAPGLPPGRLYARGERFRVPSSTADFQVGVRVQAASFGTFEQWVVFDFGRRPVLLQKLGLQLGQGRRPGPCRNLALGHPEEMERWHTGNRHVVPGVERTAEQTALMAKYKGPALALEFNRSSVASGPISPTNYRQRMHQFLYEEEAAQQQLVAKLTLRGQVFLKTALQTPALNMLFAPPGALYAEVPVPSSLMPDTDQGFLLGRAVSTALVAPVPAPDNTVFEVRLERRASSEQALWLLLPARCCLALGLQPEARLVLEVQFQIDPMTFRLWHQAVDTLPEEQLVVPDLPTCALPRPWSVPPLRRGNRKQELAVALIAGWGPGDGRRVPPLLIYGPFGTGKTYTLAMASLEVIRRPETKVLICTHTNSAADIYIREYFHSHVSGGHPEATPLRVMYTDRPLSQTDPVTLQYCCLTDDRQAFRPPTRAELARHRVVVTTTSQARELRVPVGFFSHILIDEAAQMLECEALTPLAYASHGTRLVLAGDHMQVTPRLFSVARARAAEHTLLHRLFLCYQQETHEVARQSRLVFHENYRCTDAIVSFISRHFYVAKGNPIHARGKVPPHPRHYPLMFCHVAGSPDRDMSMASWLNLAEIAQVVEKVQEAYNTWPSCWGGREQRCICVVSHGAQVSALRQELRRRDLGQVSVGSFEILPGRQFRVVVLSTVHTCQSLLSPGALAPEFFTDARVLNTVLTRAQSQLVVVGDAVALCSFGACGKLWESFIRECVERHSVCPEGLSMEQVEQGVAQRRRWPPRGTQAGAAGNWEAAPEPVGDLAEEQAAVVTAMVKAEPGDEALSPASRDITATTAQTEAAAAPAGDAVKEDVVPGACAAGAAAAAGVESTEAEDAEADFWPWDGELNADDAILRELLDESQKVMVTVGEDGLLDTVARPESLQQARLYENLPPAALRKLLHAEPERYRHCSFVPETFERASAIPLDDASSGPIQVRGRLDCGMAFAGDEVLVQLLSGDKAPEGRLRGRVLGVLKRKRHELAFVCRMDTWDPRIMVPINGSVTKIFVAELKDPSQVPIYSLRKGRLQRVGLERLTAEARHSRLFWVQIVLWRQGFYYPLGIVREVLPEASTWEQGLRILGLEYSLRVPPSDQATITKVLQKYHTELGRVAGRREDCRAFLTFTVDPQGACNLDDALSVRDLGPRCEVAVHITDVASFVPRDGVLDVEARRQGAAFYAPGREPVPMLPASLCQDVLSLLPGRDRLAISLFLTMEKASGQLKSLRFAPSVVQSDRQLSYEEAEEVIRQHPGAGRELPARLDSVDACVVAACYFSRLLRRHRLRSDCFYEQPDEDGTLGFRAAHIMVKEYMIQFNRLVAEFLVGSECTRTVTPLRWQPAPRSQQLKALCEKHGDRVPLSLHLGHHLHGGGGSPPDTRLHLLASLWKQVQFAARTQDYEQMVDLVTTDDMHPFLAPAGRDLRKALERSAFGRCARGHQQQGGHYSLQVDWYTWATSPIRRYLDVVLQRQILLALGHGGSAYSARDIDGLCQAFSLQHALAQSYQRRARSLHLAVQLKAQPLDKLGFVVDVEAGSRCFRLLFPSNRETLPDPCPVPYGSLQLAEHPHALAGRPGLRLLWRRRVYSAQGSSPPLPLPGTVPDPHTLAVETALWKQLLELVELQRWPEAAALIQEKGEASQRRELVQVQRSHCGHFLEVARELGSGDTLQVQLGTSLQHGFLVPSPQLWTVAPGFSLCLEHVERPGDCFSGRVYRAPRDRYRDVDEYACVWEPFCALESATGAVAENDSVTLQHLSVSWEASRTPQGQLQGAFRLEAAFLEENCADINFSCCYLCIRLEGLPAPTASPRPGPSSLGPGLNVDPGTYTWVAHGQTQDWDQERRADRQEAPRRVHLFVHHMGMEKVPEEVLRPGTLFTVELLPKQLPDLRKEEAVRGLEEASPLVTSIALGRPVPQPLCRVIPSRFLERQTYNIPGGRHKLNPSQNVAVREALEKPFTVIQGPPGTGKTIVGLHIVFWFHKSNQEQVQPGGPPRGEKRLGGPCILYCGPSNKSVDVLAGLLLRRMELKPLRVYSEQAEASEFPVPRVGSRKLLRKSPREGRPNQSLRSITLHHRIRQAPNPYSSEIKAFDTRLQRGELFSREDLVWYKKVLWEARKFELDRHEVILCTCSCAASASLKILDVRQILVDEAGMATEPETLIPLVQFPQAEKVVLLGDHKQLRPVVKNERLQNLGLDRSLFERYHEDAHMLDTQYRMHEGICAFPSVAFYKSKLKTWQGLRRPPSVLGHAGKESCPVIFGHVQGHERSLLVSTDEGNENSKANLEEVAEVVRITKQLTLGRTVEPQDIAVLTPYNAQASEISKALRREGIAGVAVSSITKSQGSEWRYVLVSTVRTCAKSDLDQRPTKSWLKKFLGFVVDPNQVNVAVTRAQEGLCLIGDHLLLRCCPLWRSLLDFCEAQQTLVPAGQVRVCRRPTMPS

For the compound `CN(C)C(=N)N=C(N)N` [Metformin], in [1] (Table 1, comparator drugs), the “Blood HDLc” value is reported as “→”, the “Blood LDLc” value is reported as “→”, the Body weight entry is given as “→” and the Fatty liver result is reported as “→”. For the same compound, in series [1] (Table 1, comparator drugs), the Hyperglycemia entry was “↓”, the Hypertension entry was “→” and the Insulin resistance entry is on record as “↓”. In addition, in series [1] (comparison, comparator drugs), the “action on insulin resistance” value was “ameliorate insulin resistance”, the anti-fatty liver action entry is listed as “does not exhibit anti-fatty liver action”, the anti-obesity action result is “does not exhibit anti-obesity action” and the hyperglycemia-mitigating action result was “exhibits hyperglycemia-mitigating action”.
What is called Kd is a measure of binding affinity in units of concentration. On to `NCCCNCCSP(=O)(O)O` [amifostine trihydrate], for which the equilibrium dissociation constant (Kd) at Helz2 (setting [12]) lay in the range of 1 to 490 nM.
The same measure, in the same setting: the same measure for `CN(C)CCC(c1ccc(Br)cc1)c1ccccn1` (stereo not shown) [brompheniramine maleate]: 1 to 490 nM; for `Clc1cccc(Cl)c1N=C1NCCN1` [clonidine hydrochloride]: not below 1000 nM.
Still for that read-out and setting: for `COC(=O)Nc1nc2ccc(Sc3ccccc3)cc2[nH]1` [fenbendazole] the value was 1 to 490 nM.
Regarding `N=C(N)N/N=C/c1c(Cl)cccc1Cl` [guanabenz acetate], in [2] (setting [13]), the “hepatic Chol content” value is reported as “significantly reduced” and the “hepatic Tg content” value is listed as “significantly reduced”. In series [2] (setting [14]), the “fat globule area (BODIPY staining-positive area in hepatocyte)” value is reported as “significantly decreased” and the “fat globule cell size (size of BODIPY staining-positive cell)” value is “significantly decreased”. For the same compound, in series [3], the “blood CM-Tg concentration” value was “not changed”, the “blood HDLc concentration” value is recorded as “not changed”, the “blood LDLc concentration” value is “significantly decreased” and the “blood VLDL-Tg concentration” value was “not changed”. In the series with Hepatic Leprb expression, the “Hepatic Leprb gene expression” value is listed as “significantly increased”. In series [4], the weight of kidney result is listed as “No change” and the weight of spleen result is reported as “No change”. For the same compound, in [5] (fasting), the blood glucose levels result is “lowered the level of hyperglycemia to that in non-obese mice” and the blood insulin levels entry is recorded as “mitigated hyperinsulinemia”. Also, the “HOMA-IR index (insulin resistance index)” value in series [5] is on record as “suppressed the HOMA-IR index”. Also, in series [6], the “muscle weight of gastrocnemius muscle” value is given as “not affected”, the “muscle weight of plantaris muscle” value was “not affected” and the “muscle weight of soleus muscle” value was “not affected”. Moreover, in series [6] (vs physiological saline), the “amount of intestinal membrane fat” value is recorded as “not changed”, the “amount of peritesticular fat” value is “not changed” and the “amount of total visceral fat” value is recorded as “not changed”. Further, the Kd on Helz2 (setting [12]) is 1 to 490 nM and 2.3 nM. The “Leprb expression in cultured hepatocyte (index of lowering of Helz2 action)” value in [7] is on record as “Concentration-dependent increase in Leprb expression”. For the same compound, the “blood leptin concentration relative to non-obese mice” value in series [8] (obese mice after administration, vs non-obese mice (2.3±0.5 ng/mL)) is listed as not below 10 fold. In series [8] (setting [15]), the blood leptin concentration entry is reported as “rather slightly decreased” and the “total food intake accumulation” value is recorded as “no significant change”. Besides, the daily food intake result in series [8] (obese mice, except on day 3 from the beginning of administration, vs physiological saline) was “no change in daily food intake”. In [9], the “HOMA-β index (pancreatic β-cell function)” value is “not changed” and the pancreatic weight entry is reported as “not changed”. For the same compound, in series [10], the weight of heart result is “significantly decreased” and the weight of liver entry is “significantly decreased”. Moreover, in series [11] (after day 4 from the beginning of administration, vs physiological saline), the body weight gain entry was “significantly reduced”. For the same compound, the Body weight entry in series [11] (on day 8 from the beginning of administration, maintained during administration) is given as “significant body weight reduction”.
In turn, `CN(C)C(=O)C(CCN1CCC(O)(c2ccc(Cl)cc2)CC1)(c1ccccc1)c1ccccc1` [loperamide hydrochloride] registered a Kd at Helz2 (setting [16]) of 1 to 490 nM.
As to `Cc1nc2ccccn2c(=O)c1CCN1CCC(C(=O)c2ccc(F)cc2)CC1` [pirenperone], the Kd at Helz2 (setting [12]) is 1 to 490 nM.
The same measure, in the same setting: for `CC(NCCc1ccc(O)cc1)C(O)c1ccc(O)cc1` (stereo not shown) [ritodrine hydrochloride] the value was 1 to 490 nM.
On to `CCN(C)C(=O)Oc1cccc([C@H](C)N(C)C)c1` [rivastigmine tartrate], for which the Kd on Helz2 (setting [16]) fell in the range of 1 to 490 nM.
In the case of `CC(C)(C)NCC(O)c1ccc(O)c(CO)c1` (stereo not shown) [salbutamol], at Helz2 (setting [12]), the Kd was 1 to 490 nM and 220 nM.
At Helz2 (setting [16]), `CC(C)CC(N(C)C)C1(c2ccc(Cl)cc2)CCC1` (stereo not shown) [sibutramine hydrochloride] had a Kd of 1 to 490 nM.
For `CC1(C)[C@H](C(=O)O)N2C(=O)C[C@H]2S1(=O)=O` [sulbactam], the Kd on Helz2 (setting [12]) was 1 to 490 nM.
Turning to `C[C@@H](c1ncncc1F)[C@](O)(Cn1cncn1)c1ccc(F)cc1F` [voriconazole], the Kd on Helz2 (setting [12]) fell in the range of 1 to 490 nM.
